In general, IC50 refers to the concentration needed to halve the response being measured.

SMILES strings stand for the structures. Some results are limits rather than exact numbers.

The target of this experiment is T1, human Nav1.7 channels (Homo sapiens, UniProt Q15858).
T1 construct: expressed in transfected cells; host or cells: CHO
The experiment can be described thus: FRET assay, human Nav1.7 (EFS on FDSS). Particulars: CHO cells expressing human Nav1.7, read-out: IC50 against Nav1.7. The experiment is classed as cell-based. A digest of the protocol:
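CHO cells stably expressing the channel, loaded with CC2-DMPE (10 µM) then DiSBAC2(3) (15 µM) plus VABSC-1, in HEPES-buffered saline pH 7.4 at room temperature. Electrical field stimulation on FDSS; FRET ratio at 440 nm fitted for IC50.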

T1 sequence (Q15858 whole entry): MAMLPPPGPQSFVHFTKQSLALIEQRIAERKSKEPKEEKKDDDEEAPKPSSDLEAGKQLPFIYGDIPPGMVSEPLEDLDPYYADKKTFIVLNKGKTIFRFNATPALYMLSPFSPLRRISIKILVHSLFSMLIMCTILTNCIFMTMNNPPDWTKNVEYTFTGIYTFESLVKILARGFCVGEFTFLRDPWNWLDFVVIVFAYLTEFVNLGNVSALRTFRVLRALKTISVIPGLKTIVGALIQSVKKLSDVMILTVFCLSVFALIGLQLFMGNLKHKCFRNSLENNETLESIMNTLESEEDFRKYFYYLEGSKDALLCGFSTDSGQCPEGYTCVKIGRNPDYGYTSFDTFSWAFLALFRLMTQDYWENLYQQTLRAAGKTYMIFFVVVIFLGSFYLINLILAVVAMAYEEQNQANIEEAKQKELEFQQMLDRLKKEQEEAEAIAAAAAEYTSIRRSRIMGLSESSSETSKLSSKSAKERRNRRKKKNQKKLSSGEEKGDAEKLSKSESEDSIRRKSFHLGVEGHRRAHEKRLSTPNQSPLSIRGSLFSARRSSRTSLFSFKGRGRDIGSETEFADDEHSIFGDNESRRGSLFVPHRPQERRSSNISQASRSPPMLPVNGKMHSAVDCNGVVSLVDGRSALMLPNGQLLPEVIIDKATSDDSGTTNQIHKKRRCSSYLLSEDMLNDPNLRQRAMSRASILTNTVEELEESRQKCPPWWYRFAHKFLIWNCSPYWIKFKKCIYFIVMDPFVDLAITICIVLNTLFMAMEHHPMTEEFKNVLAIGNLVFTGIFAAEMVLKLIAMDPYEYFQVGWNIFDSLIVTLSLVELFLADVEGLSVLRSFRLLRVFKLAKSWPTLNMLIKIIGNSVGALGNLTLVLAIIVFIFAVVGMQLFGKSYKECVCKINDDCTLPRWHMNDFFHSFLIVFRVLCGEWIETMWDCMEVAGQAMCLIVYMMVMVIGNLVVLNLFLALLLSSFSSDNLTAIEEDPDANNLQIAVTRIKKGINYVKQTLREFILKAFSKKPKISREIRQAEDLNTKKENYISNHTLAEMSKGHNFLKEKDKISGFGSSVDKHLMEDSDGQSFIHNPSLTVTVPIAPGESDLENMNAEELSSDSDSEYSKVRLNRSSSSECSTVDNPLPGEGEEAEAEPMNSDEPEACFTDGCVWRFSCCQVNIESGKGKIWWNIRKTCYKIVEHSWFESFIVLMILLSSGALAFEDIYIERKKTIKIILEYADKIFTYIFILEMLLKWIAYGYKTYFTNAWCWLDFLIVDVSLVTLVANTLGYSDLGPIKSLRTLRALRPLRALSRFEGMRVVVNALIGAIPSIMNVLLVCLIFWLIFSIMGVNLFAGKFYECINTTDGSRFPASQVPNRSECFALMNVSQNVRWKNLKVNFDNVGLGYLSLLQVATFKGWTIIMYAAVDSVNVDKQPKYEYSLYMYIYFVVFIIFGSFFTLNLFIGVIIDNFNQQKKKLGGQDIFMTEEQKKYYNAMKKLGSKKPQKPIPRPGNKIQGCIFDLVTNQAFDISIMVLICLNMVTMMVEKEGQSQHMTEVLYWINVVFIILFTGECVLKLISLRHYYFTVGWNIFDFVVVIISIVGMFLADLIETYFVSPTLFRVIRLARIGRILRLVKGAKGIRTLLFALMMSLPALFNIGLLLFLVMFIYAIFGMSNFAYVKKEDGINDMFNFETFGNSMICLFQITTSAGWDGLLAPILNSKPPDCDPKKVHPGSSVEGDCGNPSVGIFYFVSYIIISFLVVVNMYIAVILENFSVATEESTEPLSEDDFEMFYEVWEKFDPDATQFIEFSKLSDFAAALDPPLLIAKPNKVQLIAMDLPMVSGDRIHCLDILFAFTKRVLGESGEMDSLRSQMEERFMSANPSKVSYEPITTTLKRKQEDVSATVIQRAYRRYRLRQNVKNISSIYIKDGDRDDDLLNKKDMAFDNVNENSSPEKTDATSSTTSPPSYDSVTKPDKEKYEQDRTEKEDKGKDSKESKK

As to `CC(=O)Nc1cc(C(=O)NCc2cnc(OCC(F)(F)F)cc2C)cc(C)n1` [Example 243, 2-acetamido-6-methyl-N-((4-methyl-6-(2,2,2-trifluoroethoxy)pyridin-3-yl)methyl)isonicotinamide], the IC50 is less than 1000 nM.
Take `CCOc1cc(CNC(=O)c2cc(C)nc(NC(C)=O)c2)cnc1OCC(F)(F)F` [Example 264, 2-acetamido-N-((5-ethoxy-6-(2,2,2-trifluoroethoxy)pyridin-3-yl)methyl)-6-methylisonicotinamide]: the IC50 is less than 1000 nM.
Take `CCC(=O)Nc1cc(C(=O)NCc2cnc(OCC(F)(F)F)c(OC)c2)cc(C)n1` [Example 270]: the IC50 is less than 1000 nM.
On to `COc1cc(CNC(=O)c2cc(C)nc(NC(C)=O)c2)cnc1OCC(F)(F)F` [Example 272, 2-acetamido-N-((5-methoxy-6-(2,2,2-trifluoroethoxy)pyridin-3-yl)methyl)-6-methylisonicotinamide], for which the 50% inhibitory concentration (IC50) is less than 1000 nM.
Consider `CC(=O)Nc1cc(C(=O)NCc2ccc(OCC(F)(F)F)nc2N2CCOCC2)ccn1` [Example 281, 2-acetamido-N-((2-morpholino-6-(2,2,2-trifluoroethoxy)pyridin-3-yl)methyl)isonicotinamide], for which the IC50 was less than 1000 nM.
`CC(C)C(=O)Nc1cc(C(=O)NCc2ccc(OCC(F)(F)F)nc2N2CCOCC2)ccn1` [Example 282, 2-isobutyramido-N-((2-morpholino-6-(2,2,2-trifluoroethoxy)pyridin-3-yl)methyl)isonicotinamide]: the IC50 is less than 1000 nM.
`CC(=O)Nc1cc(C(=O)NCc2ccc(OCC(F)(F)F)nc2N2CCOCC2)cc(C)n1` [Example 283, 2-acetamido-6-methyl-N-((2-morpholino-6-(2,2,2-trifluoroethoxy)pyridin-3-yl)methyl)isonicotinamide]: the half-maximal inhibitory concentration (IC50) is less than 1000 nM.
`CCC(=O)Nc1cc(C(=O)NCc2ccc(OCC(F)(F)F)nc2N2CCOCC2)cc(C)n1` [Example 284, 2-methyl-N-((2-morpholino-6-(2,2,2-trifluoroethoxy)pyridin-3-yl)methyl)-6-propionamidoisonicotinamide]: the IC50 was less than 1000 nM.
As for `COc1nc(OCC(F)(F)F)ccc1CN(C)C(=O)c1cc(C)nc(NC(C)=O)c1` [Example 290, 2-acetamido-N-((2-methoxy-6-(2,2,2-trifluoroethoxy)pyridin-3-yl)methyl)-N,6-dimethylisonicotinamide], the IC50 was less than 1000 nM.
Then `CCC(=O)Nc1cc(C(=O)N(C)Cc2ccc(OCC(F)(F)F)nc2OC)cc(C)n1` [Example 291, N-((2-methoxy-6-(2,2,2-trifluoroethoxy)pyridin-3-yl)methyl)-N,2-dimethyl-6-propionamidoisonicotinamide], with less than 1000 nM; and `CC(=O)Nc1cc(C(=O)NCc2ccc(OCC(F)(F)F)nc2N2CCCCC2)ccn1` [Example 302, 2-acetamido-N-((2-(piperidin-1-yl)-6-(2,2,2-trifluoroethoxy)pyridin-3-yl)methyl)isonicotinamide], with less than 1000 nM.
As to `CCC(=O)Nc1cc(C(=O)NCc2ccc(OCC(F)(F)F)nc2N2CCCCC2)ccn1` [Example 303, N-((2-(piperidin-1-yl)-6-(2,2,2-trifluoroethoxy)pyridin-3-yl)methyl)-2-propionamidoisonicotinamide], the IC50 was less than 1000 nM.
On to `O=C(NCc1ccc(OCC(F)(F)F)nc1N1CCCCC1)c1ccnc(NC(=O)C2CC2)c1` [Example 304, 2-(cyclopropanecarboxamido)-N-((2-(piperidin-1-yl)-6-(2,2,2-trifluoroethoxy)pyridin-3-yl)methyl)isonicotinamide], for which the IC50 was less than 1000 nM.
In the case of `CC(C)C(=O)Nc1cc(C(=O)NCc2ccc(OCC(F)(F)F)nc2N2CCCCC2)ccn1` [Example 305, 2-isobutyramido-N-((2-(piperidin-1-yl)-6-(2,2,2-trifluoroethoxy)pyridin-3-yl)methyl)isonicotinamide] it was less than 1000 nM.
Consider `CCC(=O)Nc1cc(C(=O)NCc2ccc(OCC(F)(F)F)nc2N2CCCCC2)cc(C)n1` [Example 306, 2-methyl-N-((2-(piperidin-1-yl)-6-(2,2,2-trifluoroethoxy)pyridin-3-yl)methyl)-6-propionamidoisonicotinamide], for which the IC50 is less than 1000 nM.
Then `CC(=O)Nc1cc(C(=O)NCc2ccc(OCC(F)(F)F)nc2N2CCCCC2)cc(C)n1` [Example 307, 2-acetamido-6-methyl-N-((2-(piperidin-1-yl)-6-(2,2,2-trifluoroethoxy)pyridin-3-yl)methyl)isonicotinamide], with less than 1000 nM; and `CCCC(=O)Nc1cc(C(=O)NCc2ccc(OCC(F)(F)F)nc2N2CCCCC2)ccn1` [Example 308, 2-butyramido-N-((2-(piperidin-1-yl)-6-(2,2,2-trifluoroethoxy)pyridin-3-yl)methyl)isonicotinamide], with less than 1000 nM; and `CC(=O)Nc1cc(C(=O)NCc2cc(F)c(OCC(F)(F)F)nc2C)cc(C)n1` [Example 312, 2-acetamido-N-((5-fluoro-2-methyl-6-(2,2,2-trifluoroethoxy)pyridin-3-yl)methyl)-6-methylisonicotinamide], with less than 1000 nM.
In the case of `CCC(=O)Nc1cc(C(=O)NCc2cc(F)c(OCC(F)(F)F)nc2C)cc(C)n1` [Example 313, N-((5-fluoro-2-methyl-6-(2,2,2-trifluoroethoxy)pyridin-3-yl)methyl)-2-methyl-6-propionamidoisonicotinamide] it was less than 1000 nM; in that of `Cc1nc(OCC(F)(F)F)c(F)cc1CNC(=O)c1ccnc(NC(=O)C(C)C)c1` [Example 314, N-((5-fluoro-2-methyl-6-(2,2,2-trifluoroethoxy)pyridin-3-yl)methyl)-2-isobutyramidoisonicotinamide], less than 1000 nM.
Then `CCC(=O)Nc1cc(C(=O)NCc2cc(F)c(OCC(F)(F)F)nc2OC)cc(C)n1` [Example 328, N-((5-fluoro-2-methoxy-6-(2,2,2-trifluoroethoxy)pyridin-3-yl)methyl)-2-methyl-6-propionamidoisonicotinamide], with less than 1000 nM; and `CCOc1nc(OCC(F)(F)F)ccc1CNC(=O)c1ccnc(NC(C)=O)c1` [Example 332, 2-acetamido-N-((2-ethoxy-6-(2,2,2-trifluoroethoxy)pyridin-3-yl)methyl)isonicotinamide], with less than 1000 nM; and `CCOc1nc(OCC(F)(F)F)ccc1CNC(=O)c1ccnc(NC(=O)CC)c1` [Example 333, N-((2-ethoxy-6-(2,2,2-trifluoroethoxy)pyridin-3-yl)methyl)-2-propionamidoisonicotinamide], with less than 1000 nM.
`CCOc1nc(OCC(F)(F)F)ccc1CNC(=O)c1cc(C)nc(NC(=O)CC)c1` [Example 334, N-((2-ethoxy-6-(2,2,2-trifluoroethoxy)pyridin-3-yl)methyl)-2-methyl-6-propionamidoisonicotinamide]: the IC50 is less than 1000 nM.
Then `CCOc1nc(OCC(F)(F)F)ccc1CNC(=O)c1ccnc(NC(=O)C(C)C)c1` [Example 335, N-((2-ethoxy-6-(2,2,2-trifluoroethoxy)pyridin-3-yl)methyl)-2-isobutyramidoisonicotinamide], with less than 1000 nM.
`CCOc1nc(OCC(F)(F)F)ccc1CNC(=O)c1cc(C)nc(NC(C)=O)c1` [Example 336, 2-acetamido-N-((2-ethoxy-6-(2,2,2-trifluoroethoxy)pyridin-3-yl)methyl)-6-methylisonicotinamide]: the IC50 is less than 1000 nM.
With `CCCC(=O)Nc1cc(C(=O)NCc2ccc(OCC(F)(F)F)nc2OCC)ccn1` [Example 337, 2-butyramido-N-((2-ethoxy-6-(2,2,2-trifluoroethoxy)pyridin-3-yl)methyl)isonicotinamide], the IC50 was less than 1000 nM.
In the case of `CCOc1nc(OCC(F)(F)F)ccc1CNC(=O)c1cc(C)nc(NC(C)=O)n1` [Example 338, 2-acetamido-N-((2-ethoxy-6-(2,2,2-trifluoroethoxy)pyridin-3-yl)methyl)-6-methylpyrimidine-4-carboxamide], the IC50 was less than 1000 nM.
With `Cc1cc(C(=O)NCc2cnc(OCC(F)(F)F)cc2C)nc(NC(=O)C(C)C)n1` [Example 353, 2-isobutyramido-6-methyl-N-((4-methyl-6-(2,2,2-trifluoroethoxy)pyridin-3-yl)methyl)pyrimidine-4-carboxamide], the IC50 is less than 1000 nM.
As to `Cc1cc(C(=O)NCc2cnc(OCC(F)(F)F)c(C)c2)nc(NC(=O)C2CC2)n1` [Example 365, 2-(cyclopropanecarboxamido)-6-methyl-N-((5-methyl-6-(2,2,2-trifluoroethoxy)pyridin-3-yl)methyl)pyrimidine-4-carboxamide], the IC50 is less than 1000 nM.
With `Cc1cc(C(=O)NCc2cnc(OCC(F)(F)F)c(C)c2)nc(NC(=O)C(C)C)n1` [Example 366, 2-isobutyramido-6-methyl-N-((5-methyl-6-(2,2,2-trifluoroethoxy)pyridin-3-yl)methyl)pyrimidine-4-carboxamide], the half-maximal inhibitory concentration (IC50) is less than 1000 nM.
`CC(=O)Nc1cc(C(=O)NCc2cnc(OCC(F)(F)F)c(C)c2)ccn1` [Example 367, 2-acetamido-N-((5-methyl-6-(2,2,2-trifluoroethoxy)pyridin-3-yl)methyl)isonicotinamide]: the IC50 is less than 1000 nM.
`Cc1cc(CNC(=O)c2ccnc(NC(=O)C(C)C)c2)cnc1OCC(F)(F)F` [Example 370, 2-isobutyramido-N-((5-methyl-6-(2,2,2-trifluoroethoxy)pyridin-3-yl)methyl)isonicotinamide]: the IC50 was less than 1000 nM.
In the case of `COc1nc(OCC(F)(F)F)ccc1CNC(=O)c1cc(C)nc(NC(=O)C(C)C)n1` [Example 374, 2-isobutyramido-N-((2-methoxy-6-(2,2,2-trifluoroethoxy)pyridin-3-yl)methyl)-6-methylpyrimidine-4-carboxamide], the IC50 is less than 1000 nM.
Turning to `Cc1cc(C(=O)NCc2cnc(OCC(F)(F)F)c(Cl)c2)nc(NC(=O)C(C)C)n1` [Example 385, N-((5-chloro-6-(2,2,2-trifluoroethoxy)pyridin-3-yl)methyl)-2-isobutyramido-6-methylpyrimidine-4-carboxamide], the IC50 is less than 1000 nM.

The record behind these values is US9302991B2, “Arylamide derivatives as TTX-S blockers” (RaQualia Pharma Inc., priority 2010, dated 2016).
